Values quoted from earlier work, collected in patent US11813363B1, “Concentrated nutritional or supplemental compound for intestinal, gut-brain axis and neurobiological homeostasis through calibrated absorption including neurotransmitter or any equilibrating compound release to treat or mitigate disease and co-morbidities, particularly obesity and malnourishment” (priority 2022, dated 2023).

Conditions: oral ingestion; reddish-orange color of urine

Cl.Nc1ccc(/N=N/c2ccccc2)c(N)n1 [phenazopyridine, phenazopyridine hydrochloride]
time to visible urine color change after ingestion (earliest): ≥ 20 min
time to visible urine color change after ingestion (latest): within one hour
